Test results published in ChEMBL document CHEMBL5346982, “Disrupting Kaposi's Sarcoma-Associated Herpesvirus (KSHV) Latent Replication with a Small Molecule Inhibitor” (J Med Chem, 2023).

Test system: Human gammaherpesvirus 8
Test: Antiviral activity against Kaposi's sarcoma-associated herpesvirus infected in human HEK293 cells transfected with KSHV pGTR4:73 with four terminal repeats and LANA expression cassette containing plasmid assessed as inhibition of LANA-mediated replication of viral latent replication origin TR sequence at 15.625 to 62.5 uM incubated for 3 days by Southern blot analysis
Format: functional, organism-based
Details: dose 15.625-62.5 µM, time 3.0 day

SMILES	Activity
COc1ccc(-c2cc(C)c(-n3cc(-c4ccc(C(=O)O)cc4)nn3)cn2)c(Cl)c1	Dose-Dependent Effect

Test system: Human gammaherpesvirus 8
Test: Inhibition of Kaposi's sarcoma-associated herpesvirus His-tagged oligomerization-deficient LANA DBD mutant (1008 to 1146 residues) assessed as disruption of LANA-DNA interaction at 250 uM preincubated with LBS1 representing 5'-Dy682-labeled double stranded DNA probe as substrate for 30 mins followed by compound addition and measured after 30 mins by Electrophoretic mobility shift assay
Details: not given

SMILES	inhibition [%]
Cc1cc(-c2cccc(Cl)c2)ncc1-n1cc(-c2ccc(C(=O)O)cc2)nn1	< 10
COc1ccc(-c2cc(C)c(-n3cc(-c4ccc(C(=O)O)cc4)nn3)cn2)cn1	< 10
COc1cccc(-c2cc(C)c(-n3cc(-c4ccc(C(=O)O)cc4)nn3)cn2)c1	< 10
Cc1cc(-c2cccc(C(=O)O)c2)ncc1-n1cc(-c2ccc(C(=O)O)cc2)nn1	< 10
Cc1cc(-c2ccccc2)ncc1-n1cc(-c2ccc(C(=O)O)cc2)nn1	< 10
